Our source for the Kb and Ki values is US12187727B2, “Methods for antagonizing a melanocortin 4 receptor” (Pfizer Inc., priority 2020, dated 2025).

Molecules are shown by their SMILES.

Test [1] deals with human Melanocortin-4 receptor (MC4R) (Homo sapiens (Human), UniProt P32245). The test can be described thus: Functional in vitro MC4R antagonist potency assay (cAMP HTRF in CHO cells). It is filed as cell-based. Particulars: human MC4R in CHO cells, cAMP HTRF, 200 nM aMSH challenge; Kb from IC50 by Leff-Dougall equation; geometric mean; read-out: Kb (nM) Antagonist geometric. The method, boiled down:
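CHO cells stably expressing human MC4R were preincubated 30 min at 37 °C with compound ([…], 0.1% DMSO), then stimulated 30 min with EC80 αMSH (200 nM). Intracellular cAMP quantified by HTRF competitive immunoassay and normalized to agonist-stimulated and vehicle-only wells.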

Test [2] addresses hMC4R (Homo sapiens (Human), UniProt P32245). The test can be described thus: In vitro binding affinity assay using hMC4R (radioligand competition binding, [125I]-(Nle4, D-Phe7)-α-MSH). Particulars: geometric mean, read-out: Ki (nM) geometric.

Chain of human Melanocortin-4 receptor (MC4R) (P32245 whole entry): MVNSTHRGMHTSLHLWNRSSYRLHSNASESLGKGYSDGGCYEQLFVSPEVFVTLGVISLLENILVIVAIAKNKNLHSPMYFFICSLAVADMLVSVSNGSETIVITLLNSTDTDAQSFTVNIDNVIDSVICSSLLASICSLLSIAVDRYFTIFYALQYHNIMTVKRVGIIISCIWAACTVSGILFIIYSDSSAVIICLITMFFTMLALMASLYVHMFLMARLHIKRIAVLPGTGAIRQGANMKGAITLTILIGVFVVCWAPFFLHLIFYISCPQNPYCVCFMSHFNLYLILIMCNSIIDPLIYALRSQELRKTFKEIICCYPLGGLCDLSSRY
Chain of hMC4R (P32245 whole entry): as above

Turning to `Cc1nc2c(cc1-c1ncccn1)CC[C@@]1(CCN(C(=O)[C@H](C)c3ccc(F)cc3F)C1)N2` (single isomer, unassigned) [Example 191], in test [1], the Kb (as a rule, the affinity of an antagonist, worked out from how it opposes an agonist) is greater than 94 nM. The inhibition constant Ki (in general, a dissociation constant, usually derived from enzyme kinetics or from competition with a known ligand) in test [2] came to 230 nM.

With `Cc1nc2c(cc1-c1ncccn1)CC[C@@]1(CCN(C(=O)[C@H](C)c3ccnc(OC(F)F)c3)C1)N2` (single isomer, unassigned) [Example 195], in test [1], the antagonist equilibrium constant (Kb) amounted to 3.5 nM. For the same molecule, the Ki in test [2] was 1.2 nM.

As to `COc1cc(CC(=O)N2CC[C@@]3(CCc4cc(-c5ncccn5)c(C)nc4N3)C2)c(F)cn1` [Example 106, 2-(5-fluoro-2-methoxypyridin-4-yl)-1-[(2S)-7-methyl-6-(pyrimidin-2-yl)-3,4-dihydro-1H-spiro[1,8-naphthyridine-2,3′-pyrrolidin]-1′-yl]ethan-1-one], the Kb in test [1] was 6.3 nM. Also, in test [2], the inhibition constant (Ki) amounted to 3.5 nM.

Turning to `COc1cc([C@@H](C)C(=O)N2CC[C@@]3(CCc4cc(-c5nc6ccccn6n5)c(C)nc4N3)C2)c(F)cn1` [Example 111, (2R)-2-(5-fluoro-2-methoxypyridin-4-yl)-1-[(2S)-7-methyl-6-([1,2,4]triazolo[1,5-a]pyridin-2-yl)-3,4-dihydro-1H-spiro[1,8-naphthyridine-2,3′-pyrrolidin]-1′-yl]propan-1-one], in test [1], the Kb was 0.47 nM. Moreover, the inhibition constant Ki in test [2] is 0.25 nM.

As to `COc1cc([C@@H](C)C(=O)N2CC[C@@]3(CCc4cc(-c5cncc(OC)n5)c(C)nc4N3)C2)c(F)cn1` [Example 197, (2R)-2-(5-fluoro-2-methoxypyridin-4-yl)-1-[(2S)-6-(6-methoxypyrazin-2-yl)-7-methyl-3,4-dihydro-1H-spiro[1,8-naphthyridine-2,3′-pyrrolidin]-1′-yl]propan-1-one], the antagonist equilibrium constant (Kb) in test [1] came out at 33 nM. Besides, the inhibition constant Ki in test [2] stood at 18 nM.
